Data as given in PMC8300687, “A Fine-Tuned Lipophilicity/Hydrophilicity Ratio Governs Antibacterial Potency and Selectivity of Bifurcated Halogen Bond-Forming NBTIs” (Antibiotics, 2021).
Converted amounts (≈) assume the structure as drawn. Read-outs that look alike come from different tables or passages of the source.

Tests used:
[1] = tested on: E. faecalis DRK 057 (ATCC 29212); assay: MIC broth microdilution, E. faecalis; format: cell-based
Procedure: (§1) Antimicrobial testing was carried out by the broth microdilution method in 96-well plate format following the Clinical and Laboratory Standards Institute (CLSI) guidelines and European Committee on Antimicrobial Susceptibility Testing (EUCAST) recommendations. Bacterial suspension of specific bacterial strain equivalent to 0.5 McFarland turbidity standard was diluted with cation-adjusted Mueller Hinton broth with TES (Thermo Fisher Diagnostic, Landsmeer, The Netherlands), to obtain a final inoculum of 10^5 CFU/mL. Compounds dissolved in DMSO and inoculum were mixed together and incubated for 18–20 h at 35 °C. Suspensions of Mycobacterium sp. were prepared into a tube of Middelbrook 7H9 broth supplemented with 5% OADC (Thermo Scientific, Trek Diagnostic Systems, West Sussex, UK) and incubated for at least 10 days. After incubation the minimal inhibitory concentration (MIC) values were determined by visual inspection as the lowest dilution of compounds showing no turbidity. Tetracycline was used as a positive control on every assay plate.

[2] = tested on: S. aureus (ATCC 29213); assay: MIC broth microdilution, S. aureus ATCC 29213; format: cell-based
Procedure: as §1

[3] = tested on: E. coli (QA-11.7); assay: MIC broth microdilution, E. coli QA-11.7; format: cell-based; conditions: Escherichia coli, 20 h, read-out: MIC E. coli (QA-11.7)
Procedure: as §1

[4] = tested on: MRSA (QA-11.7); assay: MIC broth microdilution, MRSA QA-11.7; format: cell-based, methicillin-resistant S. aureus; conditions: Staphylococcus aureus, 20 h, read-out: MIC MRSA (QA-11.7)
Procedure: as §1

[5] = in vitro; conditions: for Papp at 4 h: PAMPA; for PAMPA permeability classification [low/high]: relative to reference drugs
Procedure: Prior to the measurements of solubility and permeability isocratic HPLC methods were developed. […] The individual method parameters for each compound are given in the Supplementary Materials Table S1.
A 96-well precoated three-layer PAMPA plates (Corning® Gentest™ Pre-coated PAMPA Plate System, Corning, NY, USA) were used according to the manufacturer’s instructions and as described previously with 300 µL of the donor solutions in the bottom compartment and 200 µL of the acceptor solution (pH 7.4 PBS) in the upper compartment at 37 °C and a 4-h incubation time. The initial and end donor solutions were injected at a 5 µL injection volume. The initial donor solutions were also diluted 100-fold and injected at a 100 µL injection volume to serve as external references for the end acceptor solutions which were injected at the same injection volume. The permeability calculations were made with a manufacturer-provided Excel spreadsheet directly from the measured peak areas accounting for the relevant dilutions and injection volumes.

[6] = tested on: A. baumannii 8C6 (GES-14); assay: MIC broth microdilution, A. baumannii; format: cell-based
Procedure: as §1

[7] = tested on: M. avium; assay: MIC, M. avium; format: cell-based
Procedure: as §1

[8] = molecular target: T1, S. aureus DNA gyrase (Staphylococcus aureus, UniProt P20831); assay: biochemical; format: biochemical; conditions: for LE DNA Gyrase S. aureus: LE = (1.37/HA) × pIC50; for IC50: fluorescence plate supercoiling assay, mean of two to four measurements
T1 construct: purchased Inspiralis (Norwich, UK)
T1 sequence (P20831 whole entry): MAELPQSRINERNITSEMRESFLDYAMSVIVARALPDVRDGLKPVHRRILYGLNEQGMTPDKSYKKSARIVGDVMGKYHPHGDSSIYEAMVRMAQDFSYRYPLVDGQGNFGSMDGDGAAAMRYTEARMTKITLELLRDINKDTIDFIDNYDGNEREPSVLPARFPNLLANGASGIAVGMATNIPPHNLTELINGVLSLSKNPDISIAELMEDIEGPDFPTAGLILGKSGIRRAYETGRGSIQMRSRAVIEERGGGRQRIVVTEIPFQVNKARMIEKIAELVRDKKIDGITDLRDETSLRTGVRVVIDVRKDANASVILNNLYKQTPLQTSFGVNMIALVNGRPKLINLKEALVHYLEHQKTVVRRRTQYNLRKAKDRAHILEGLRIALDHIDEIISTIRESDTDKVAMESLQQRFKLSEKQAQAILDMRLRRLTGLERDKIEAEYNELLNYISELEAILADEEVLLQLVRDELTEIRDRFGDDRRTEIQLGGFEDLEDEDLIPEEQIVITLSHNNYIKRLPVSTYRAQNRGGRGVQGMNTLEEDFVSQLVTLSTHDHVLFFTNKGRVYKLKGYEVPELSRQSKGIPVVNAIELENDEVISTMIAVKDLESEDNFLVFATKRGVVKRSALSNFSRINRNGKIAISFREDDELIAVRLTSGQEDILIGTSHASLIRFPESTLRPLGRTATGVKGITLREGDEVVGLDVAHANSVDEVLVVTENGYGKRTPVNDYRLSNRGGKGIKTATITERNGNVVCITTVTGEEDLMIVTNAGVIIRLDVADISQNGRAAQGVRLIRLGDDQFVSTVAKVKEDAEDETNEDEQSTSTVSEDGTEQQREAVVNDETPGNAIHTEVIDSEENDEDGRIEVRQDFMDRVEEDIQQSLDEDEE
T1 sequence (P0A0K8 whole entry partner): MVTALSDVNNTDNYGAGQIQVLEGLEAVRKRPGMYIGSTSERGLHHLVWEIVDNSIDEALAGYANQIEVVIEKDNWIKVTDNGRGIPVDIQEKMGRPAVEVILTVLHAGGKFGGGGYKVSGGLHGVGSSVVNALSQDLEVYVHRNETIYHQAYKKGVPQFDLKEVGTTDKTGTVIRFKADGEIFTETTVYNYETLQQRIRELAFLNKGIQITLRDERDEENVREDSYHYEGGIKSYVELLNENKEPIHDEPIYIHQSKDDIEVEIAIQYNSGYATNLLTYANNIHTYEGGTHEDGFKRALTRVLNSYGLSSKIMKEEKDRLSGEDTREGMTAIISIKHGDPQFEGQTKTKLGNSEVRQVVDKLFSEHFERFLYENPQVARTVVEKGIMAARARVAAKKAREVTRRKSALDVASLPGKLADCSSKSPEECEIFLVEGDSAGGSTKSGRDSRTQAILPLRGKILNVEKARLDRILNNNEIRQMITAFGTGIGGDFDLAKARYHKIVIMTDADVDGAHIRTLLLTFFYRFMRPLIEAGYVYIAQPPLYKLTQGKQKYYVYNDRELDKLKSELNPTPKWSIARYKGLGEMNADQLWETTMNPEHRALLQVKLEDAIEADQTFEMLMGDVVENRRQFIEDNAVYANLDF
Procedure: A Gyrase Supercoiling High Throughput Plate assay kit, purchased from Inspiralis (Norwich. UK) was used to determine IC50 values of compounds on S. aureus and E. coli. […] Biotinylated oligonucleotide in wash buffer was immobilized onto the wells, and the excess oligonucleotide was washed off with wash buffer and ultrapure water. […] The reactions were stopped by adding the TF buffer (50 mM NaOAc (pH 4.7), 50 mM NaCl, and 50 mM MgCl2) to allow the triplex formation (biotin-oligonucleotide-plasmid) for additional 30 min. Afterward, the unbound plasmid was washed off using TF buffer, and the solution of Promega Diamond dye in T10 buffer (10 mM Tris-HCl (pH 8.0), 1 mM EDTA) was added. […] IC50 value represents the mean of two to four independent measurements.

[9] = tested on: MRSA; assay: MIC broth microdilution, MRSA; format: cell-based, methicillin-resistant S. aureus; conditions: Staphylococcus aureus, read-out: MIC MRSA
Procedure: as §1

[10] = tested on: E. coli N43 (CGSC# 5583); assay: MIC broth microdilution, E. coli N43; format: cell-based; conditions: for MIC: Escherichia coli
Procedure: as §1

[11] = tested on: S. agalactiae RDK 047 (QA-990/02); assay: MIC broth microdilution, S. agalactiae; format: cell-based
Procedure: as §1

[12] = tested on: M. smegmatis; assay: MIC, M. smegmatis; format: cell-based, Mycobacterium smegmatis
Procedure: as §1

[13] = tested on: HUVEC; assay: Metabolic activity assessment (cytotoxicity), HUVEC; format: cell-based; conditions: Homo sapiens, 72 h, metabolic activity after 72 h treatment
Procedure: Cells of the HepG2 line (ATCC® HB-8065™) and HUVEC (ATCC® CRL-1730™) were cultured in Dulbecco’s Modified Eagle Medium (DMEM; Sigma-Aldrich, St. Louis, MO, USA) supplemented with 10% heat-deactivated FBS (Gibco, Grand Island, NE, USA), 2 mM L-glutamine, 100 U/mL penicillin, 100 μg/mL streptomycin (all from Sigma-Aldrich, St. Louis, MO, USA) in a humidified chamber at 37 °C and 5% CO2. The experiments were carried out on passages 7–9 for both cell lines. The tested compounds were dissolved in DMSO and further diluted in culture medium to a desired final concentration. Cells were seeded into 96-well plates at 8 × 10^4 cells/mL (100 μL/well) and incubated for 24 h to attach onto the wells. Cells were treated with 1 μM and 50 μM of each compound of interest or corresponding vehicle as control. […] The metabolic activity was assessed after 72 h treatment using the CellTiter 96 Aqueous One Solution Cell Proliferation Assay (Promega, Madison, WI, USA), in accordance with the manufacturer’s instructions. The absorbance was measured at 492 nm on an automated microplate reader BioTek Synergy HT (BioTek Instruments, Inc., Winooski, VT, USA). Data are presented as the percentage of metabolic activity of control cells stimulated with vehicle or as IC50 value (mean ± SD) from two independent experiments, each conducted in duplicate or triplicate. IC50 values were calculated by a non-linear regression model using Graph Pad Prism 7 software.

[14] = tested on: MRSA (QA-11.4); assay: MIC broth microdilution, MRSA QA-11.4; format: cell-based, methicillin-resistant S. aureus; conditions: Staphylococcus aureus, 20 h, read-out: MIC MRSA (QA-11.4)
Procedure: as §1

[15] = Enterococcus faecalis, ATCC29212; read-out: MIC E. faecalis DRK 057 (ATCC 29212)
[16] = Staphylococcus aureus, ATCC29213; S. aureus ATCC 29213; read-out: S. aureus MIC (converted)
[17] = Staphylococcus aureus, ATCC29213; read-out: MIC S. aureus (ATCC 29213)
[18] = multi-resistant isolate (ampicillin, azithromycin, cefotaxime, ertapenem, imipenem and others)
[19] = Acinetobacter baumannii; read-out: MIC A. baumannii 8C6 (GES-14)
[20] = Mycobacterium avium; read-out: MIC M. avium
[21] = read-out: E. coli N43 MIC in molar
[22] = read-out: MIC E. coli N43 (CGSC# 5583)
[23] = Streptococcus agalactiae; read-out: MIC S. agalactiae RDK 047 (QA-990/02)
[24] = Mycolicibacterium smegmatis; read-out: MIC M. smegmatis
[25] = Staphylococcus aureus, ATCC29213, read-out: MIC S. aureus (ATCC 29213)

SMILES	MIC [1, 15] [µg/mL]	MIC [2, 16] [µM]	MIC [2, 17] [µg/mL]	MIC [3, 18] [µg/mL]	MIC [4] [µg/mL]	Papp at 4 h [5] [×10⁻⁶ cm/s]	Papp at 4 h ([5]; pH 7.4) [×10⁻⁶ cm/s]	MIC [6, 19] [µg/mL]	MIC [7, 20] [µg/mL]	LE DNA Gyrase S. aureus [8]	IC50 [8] [µM]	MIC [9] [µg/mL]	MIC [10, 21] [µM]	MIC [10, 22] [µg/mL]	MIC [11, 23] [µg/mL]	MIC [12, 24] [µg/mL]	MIC ([14]; resistant to cefoxitin) [µg/mL]	other results
COc1ccc2nccc(CCN3CCC(NCc4ccc(OC(F)F)c(O)c4)CC3)c2n1 [Compound 20, 2-(Difluoromethoxy)-5-((1-(2-(6-methoxy-1,5-naphthyridin-4-yl)ethyl)piperidin-4-ylamino)methyl)phenol]	4 (≈ 8.72 µM)	1.09	0.5	2 (≈ 4.36 µM)	0.5 (≈ 1.09 µM)	> 2.7	3	4 (≈ 8.72 µM)	128 (≈ 279 µM)	0.27	0.33 ± 0.02	1 (≈ 2.18 µM)	1.09	0.5	2 (≈ 4.36 µM)	0.5 (≈ 1.09 µM)	2 (≈ 4.36 µM)	IC50 [13]: 29.8 ± 1.13 µM
COc1ccc2nccc(CCN3CCC(NCc4ccc(F)cc4)CC3)c2n1 [Compound 12]	8 (≈ 20.3 µM)	2.54	1	8 (≈ 20.3 µM)	4 (≈ 10.1 µM)	> 2.7	12.1	32 (≈ 81.1 µM)	32 (≈ 81.1 µM)	0.30	–	2 (≈ 5.07 µM)	10.1	4	8 (≈ 20.3 µM)	2 (≈ 5.07 µM)	4 (≈ 10.1 µM)	–
COc1ccc2nccc(CCN3CCC(NCc4ccc(I)cc4)CC3)c2n1 [Compound 15]	1 (≈ 1.99 µM)	–	0.0078	1 (≈ 1.99 µM)	0.0078 (≈ 0.0155 µM)	> 2.7	39.8	0.25 (≈ 0.498 µM)	1 (≈ 1.99 µM)	–	–	0.0078 (≈ 0.0155 µM)	0.16	0.078	0.125 (≈ 0.249 µM)	0.015 (≈ 0.0299 µM)	0.0625 (≈ 0.124 µM)	S. aureus MIC in molar ([2]; S. aureus ATCC 29213): 0.016 µM; MIC ([2]; Staphylococcus aureus, ATCC29213, 20 h; S. aureus ATCC 29213; read-out: S. aureus MIC (converted)): 0.01 µM; E. coli N43 MIC in molar ([10]; E. coli CGSC# 5583, AcrA knockout strain): 0.16 µM; IC50 [13]: ~20 µM
COc1ccc2nccc(CCN3CCC(NC(=O)c4cn5cccc(C#N)c5n4)CC3)c2n1 [Compound 7, 8-Cyano-N-(1-(2-(6-methoxy-1,5-naphthyridin-4-yl)ethyl)piperidin-4-yl)imidazo[1,2-a]pyridine-2-carboxamide]	–	281	–	–	> 128	–	2.6	–	–	–	> 100	> 128	281	> 128	–	16 (≈ 35.1 µM)	–	MIC ([1]; Enterococcus faecalis, ATCC29212, read-out: MIC E. faecalis DRK 057 (ATCC 29212)): > 128 µg/mL; MIC [2, 25]: > 128 µg/mL; MIC [3]: > 128 µg/mL; PAMPA permeability classification [low/high] [5]: int erm ediat e; MIC ([6]; Acinetobacter baumannii, read-out: MIC A. baumannii 8C6 (GES-14)): > 128 µg/mL; MIC ([7]; Mycobacterium avium, read-out: MIC M. avium): > 128 µg/mL; MIC ([11]; Streptococcus agalactiae, read-out: MIC S. agalactiae RDK 047 (QA-990/02)): > 128 µg/mL; MIC [14]: > 128 µg/mL
COc1ccc2nccc(CCN3CCC(NCc4ccc(Cl)cc4)CC3)c2n1 [Compound 13]	1 (≈ 2.43 µM)	0.3	–	1 (≈ 2.43 µM)	0.5 (≈ 1.22 µM)	> 2.7	13.2	4 (≈ 9.73 µM)	4 (≈ 9.73 µM)	–	–	0.25 (≈ 0.608 µM)	1.22	0.5	1 (≈ 2.43 µM)	0.25 (≈ 0.608 µM)	0.5 (≈ 1.22 µM)	MIC [2, 25]: 0.125 µg/mL
COc1ccc2nccc(CCN3CCC(NCc4ccc(N(C)C)cc4)CC3)c2n1 [Compound 18]	1 (≈ 2.38 µM)	0.31	–	4 (≈ 9.53 µM)	0.5 (≈ 1.19 µM)	> 2.7	16.7	8 (≈ 19.1 µM)	128 (≈ 305 µM)	0.32	–	–	2.45	1	0.25 (≈ 0.596 µM)	4 (≈ 9.53 µM)	0.5 (≈ 1.19 µM)	–
COc1ccc2nccc(CCN3CCC(NCc4ccccc4)CC3)c2n1 [Compound 11]	16 (≈ 42.5 µM)	10.6	4	32 (≈ 85 µM)	8 (≈ 21.2 µM)	> 2.7	10.9	64 (≈ 170 µM)	> 128	0.29	–	8 (≈ 21.2 µM)	21.2	8	16 (≈ 42.5 µM)	8 (≈ 21.2 µM)	8 (≈ 21.2 µM)	–
COc1ccc2nccc(CCN3CCC(NCc4ccc(C(N)=O)cc4)CC3)c2n1 [Compound 17]	128 (≈ 305 µM)	4.77	2	128 (≈ 305 µM)	4 (≈ 9.53 µM)	–	0.31	128 (≈ 305 µM)	128 (≈ 305 µM)	0.25	1.82 ± 0.11	4 (≈ 9.53 µM)	38.1	16	> 128	16 (≈ 38.1 µM)	8 (≈ 19.1 µM)	PAMPA permeability classification [low/high] [5]: low
COc1ccc2nccc(CCN3CCC(NCc4ccc(Br)cc4)CC3)c2n1 [Compound 14]	1 (≈ 2.2 µM)	0.07	0.031	1 (≈ 2.2 µM)	0.0625 (≈ 0.137 µM)	> 2.7	31.5	1 (≈ 2.2 µM)	2 (≈ 4.39 µM)	–	–	0.062 (≈ 0.136 µM)	0.27	0.125	0.5 (≈ 1.1 µM)	–	–	MIC ([12]; Mycolicibacterium smegmatis, read-out: MIC M. smegmatis): 0.125 µg/mL (≈ 0.274 µM); MIC [14]: 0.125 µg/mL (≈ 0.274 µM)
